Publication PMC6216040, “Repurposing of an old drug: In vitro and in vivo efficacies of buparvaquone against Echinococcus multilocularis” (International Journal for Parasitology: Drugs and Drug …, 2018)
Read-outs that look alike come from different tables or passages of the source.

Tested on: E. multilocularis metacestodes
Test: PGI-assay: drug-induced damage on in vitro cultured metacestodes (Pathogen Box screening cascade and EC50)
Format: cell-based, Echinococcus multilocularis
Conditions: for PGI release, % of the Tx-100 control, 5d / PGI release, % of the Tx-100 control, 12d / cytotoxicity at 10 µM: 10 µM, singlets; for cytotoxicity at 10 µM: Echinococcus multilocularis; for PGI release, % of Tx-100 control, average, 5d / PGI release, % of Tx-100 control, average, 12d: confirmatory screening at 10 µM in triplicates, values as % of Tx-100 control
[1] = 120 h, 5 days of incubation, read-out: PGI release, % of the Tx-100 control, 5d
[2] = 288 h, 12 days of incubation, read-out: PGI release, % of the Tx-100 control, 12d

Compound | PGI release, % of the Tx-100 control, 5d (5 days of incubation) | PGI release, % of the Tx-100 control, 12d (12 days of incubation) | cytotoxicity at 10 µM [1] | cytotoxicity at 10 µM [2] | PGI release, % of Tx-100 control, average, 5d (5 days of incubation) | PGI release, % of Tx-100 control, average, 12d (12 days of incubation)
Nc1c2c(nc3sc4c(c13)CCCC4)CCCC2 [MMV676588] | -0.72% | 10.95% | – | – | – | –
O=C(CCC1CCCCC1)Nc1cccc(-c2nnc(-c3ccco3)o2)c1 [MMV676589] | -1.81% | 2.20% | – | – | – | –
CCCn1nnc(NC(=O)COc2ccc(C3CCCCC3)cc2)n1 [MMV676597] | 0.61% | 0.33% | – | – | – | –
CC(C)(C)n1nc(Cc2cccc3ccccc23)c2c(N)ncnc21 [MMV676599] | -0.93% | -0.99% | – | – | – | –
CO[C@@H](C(=O)N1Cc2n[nH]c(NC(=O)c3ccc(N4CCN(C)CC4)cc3)c2C1)c1ccccc1 [MMV676600, Danusertib, reference compound] | – | – | -0.38% | -0.2% | – | –
CNC(=O)c1nn(C)c2c1C(C)(C)Cc1cnc(Nc3ccc(N4CCN(C)CC4)cc3)nc1-2 [MMV676602] | -1.52% | 120.02% | – | – | 0.52% | 12.12%
C[C@H]1COC2(CCN(c3nc(=O)c4cc(C(F)(F)F)cc([N+](=O)[O-])c4s3)CC2)O1 [MMV676603] | -4.72% | 4.80% | – | – | – | –
Cc1ncc(-c2ccnc(Nc3ccc(S(C)(=O)=O)cc3)n2)n1C(C)C [MMV676604] | -0.0262% | 0.36% | – | – | – | –
C[C@]1(O)C[C@@H](c2nc(-c3ccc4ccc(-c5ccccc5)nc4c3)c3c(N)nccn32)C1 [MMV676605, Linsitinib, reference compound] | – | – | -0.48% | 0.47% | – | –
O=C(c1ccc(NCCO)cc1)C1C[C@H]1c1ccc(Cl)cc1 (some centres unmarked) [MMV676877] | 0.56% | -0.18% | – | – | – | –
CCn1cnc2c(Nc3cc(F)cc(F)c3)nc(C#N)nc21 [MMV676881] | 0.06% | -0.62% | – | – | – | –
NC(=O)c1cc(-c2ccsc2)ccc1OCCOc1ccccc1 [MMV687138] | -3.72% | 0.14% | – | – | – | –
CCCCS(=O)(=O)Nc1ccc2cnn(C)c2c1 [MMV687145] | -0.86% | -2.20% | – | – | – | –
Cc1cc(C)c2cc(C(=O)NC3CCCCCCC3)[nH]c2c1 [MMV687146] | -4.26% | -3.34% | – | – | – | –
COc1ccc(Cn2cnc3c(-c4ccco4)nc(Cl)nc32)cc1 [MMV687170] | 0.26% | -3.06% | – | – | – | –
O=C(C1CCN(c2cc(-n3cccc3)ncn2)CC1)N1CCc2ccccc2C1 [MMV687172] | 1.69% | -1.50% | – | – | – | –
CCc1ccc([C@@H]2C[C@H](C(F)(F)F)n3ncc(C(=O)NCc4ccc(OC)cc4)c3N2)cc1 [MMV687180] | -2.14% | -5.92% | – | – | – | –
COc1ccc2nc(C)cc(OCC(=O)Nc3ccccc3OC)c2c1 [MMV687188] | 0.23% | 4.44% | – | – | – | –
COc1ccc2nc(C)cc(OCC(=O)NCc3ccccc3)c2c1 [MMV687189] | -4.79% | 3.07% | – | – | – | –
CC(C)(C(=O)Nc1ccc(F)cc1)n1cc(-c2ccccc2F)cn1 [MMV687239] | 0.07% | 101.93% | – | – | -0.64% | -1.06%
NC(=O)c1cc(Br)ccc1OCCOc1ccccc1 [MMV687243] | 1.02% | -1.47% | – | – | – | –
CN1CCN(S(=O)(=O)c2ccc(-c3ccc4c(Nc5ccc6n[nH]nc6c5)ccnc4c3)cc2)CC1 [MMV687246] | -0.71% | -0.69% | – | – | – | –
Nc1nc2cc(-c3cncc(Oc4ccc(F)cc4)c3)ccc2[nH]1 [MMV687248] | 2.44% | 3.04% | – | – | – | –
